Consider 6 compounds from patent publication US7923579B2, “Tricyclic hydroxamate and benzamide derivatives, compositions and methods” (Exonhit Therapeutics S.A., priority 2003, dated 2011).

Data set [1] relates to HDAC activity of Hela (human cervical cancer cell line) cells nuclear extract. Description: HDAC Fluorescent Activity Assay (Biomol Fluor de Lys substrate) with Hela nuclear extract. The format is biochemical. Conditions: read-out: IC50 (dose of compound leading to 50% of HDAC activity), Hela nuclear extract 5 μg, room temperature 0.5 h. An excerpt:
Therefore, a fast, non isotopic method has been chosen that relies on a fluorescent HDAC substrate. This assay is a two step enzymatic reaction. The substrate used is a peptidic substrate with a ε-acetylated lysyl moiety followed by a 4-methylcoumarin-7-amide (AMC) moiety at their carboxy terminus. In the first reaction catalysed by HDACs, acetate is released from ε-acetylated lysine residue. In the second reaction, the deacetylated peptides are recognized as substrate by trypsin, which cleaves the deacetylated peptide after the lysine residue. This cleavage releases the AMC and the fluorescence is monitored by a fluorometer.
In order to evaluate the effect of one compound on HDAC activity, the HDAC Fluorescent Activity Assay/Drug Discovery Kit® developed by Biomol and based on the two step enzymatic reaction described above was used with modifications. The substrate of the Biomol assay, called Fluor de Lys™, comprises an acetylated lysine side chain with an AMC moiety.
Then, 5 μg of Hela (human cervical cancer cell line) cells nuclear extract is added in each well. The enzymatic reaction is initiated by the addition of the diluted Fluor de Lys™ substrate and the microplate is incubated at room temperature (e.g. 25° C.) for 0.5 h. In order to stop the reaction and to produce the fluorophore release, 50 μl of the Fluor de Lys™ Developer solution is added in each well and the microplate is incubated at room temperature (e.g. 25° C.) for 0.25 h. Finally, the fluorescence is measured by a fluorimeter (Fluoroskan Ascent FL, Thermolabsystem) at excitation wavelength of 360 nm and emission wavelength of 460 nm.

Data set [2] has as its system HDAC. Conditions: read-out: HDAC activity is inhibited (reported concentration); depending of the HDAC activity assay used; cited from earlier work.

What is called melting point is the temperature, or range, at which the solid turns liquid. With `CC1(C)CCC(C)(C)c2cc(C(=O)Nc3ccc(C(F)(F)C(=O)NO)cc3)ccc21` [EHT 4996, N-(4-((hydroxycarbamoyl)difluoromethyl)phenyl)-5,6,7,8-tetrahydro-5,5,8,8-tetramethylnaphthalene-2-carboxamide], the melting point stood at 224.2 °C.

Consider `CC1(C)CCC(C)(C)c2cc(C(=O)Nc3ccc(C(=O)NO)cc3)ccc21` [EHT 3741, N-(4-(Hydroxycarbamoyl)phenyl)-5,6,7,8-tetrahydro-5,5,8,8-tetramethylnaphthalene-2-carboxamide], for which the IC50 in data set [1] was 5130 nM.

In turn, `CC1(C)CCC(C)(C)c2cc(NC(=O)c3ccc(C(=O)NO)cc3)ccc21` [EHT 7706, N-(1,2,3,4-Tetrahydro-1,1,4,4-tetramethylnaphthalen-6-yl)-N′-hydroxyterephthalamide] showed a melting point of 211 °C. Besides, the IC50 in data set [1] worked out at 1180 nM.

In the case of `CC1(C)CCC(C)(C)c2cc(C(F)(F)C(=O)Nc3ccc(C(=O)NO)cc3)ccc21` [EHT 9299, 4-(2,2-Difluoro-2-(1,2,3,4-tetrahydro-1,1,4,4-tetramethylnaphthalen-7-yl)acetamido)-N-hydroxybenzamide], the IC50 in data set [1] is 424 nM.

Turning to `CC1(C)CCC(C)(C)c2cc(C(F)(F)C(=O)NCc3ccc(C(=O)NO)cc3)ccc21` [EHT 7800, 4-((2,2-Difluoro-2-(1,2,3,4-tetrahydro-1,1,4,4-tetramethylnaphthalen-7-yl)acetamido)methyl)-N-hydroxybenzamide], the IC50 in data set [1] amounted to 4100 nM.

For `CC(/C=C/C(=O)NO)=C\[C@@H](C)C(=O)c1ccc(N(C)C)cc1` [TSA, Trichostatin A], the IC50 in data set [2] is 1.4 to 2.6 nM.
